Assays:
IKZF2 (Helios) [1] = target: T1, IKZF2 (Helios) (Homo sapiens, UniProt Q96SW2+Q9UKS7); assay: IKZF2 reporter degradation assay (HEK 293T IKZF2-mNeonGreen reporter cell line); type: cell-based; conditions: @ 1 μM, HEK 293T IKZF2-mNeonGreen reporter, 24 hours incubation; for inhibition at 1 µM: HEK-293T, 24 h
T1 construct: Leu-Asp junction (codons ctcgac before the linker); mScarlet (behind P2A) (C, cleaved yes); expressed in transfected cells
In short: (§1)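 Readout: percent of cells positive for the mNeonGreen-tagged IKZF reporter, imaged after 24 h of compound exposure at 37 °C in stable HEK 293T lines. The P2A-linked mScarlet defined the cells. DC50 values came from four-parameter logistic regression.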

IKZF2 (Helios) [2] = target: T2, IKZF2 (Helios) (Homo sapiens, UniProt Q9UKS7); assay: as above; type: cell-based; conditions: HEK 293T IKZF2-mNeonGreen reporter, 24 hours incubation
T2 construct: Leu-Asp junction (codons ctcgac before the linker); mScarlet (behind P2A) (C, cleaved yes); expressed in transfected cells
In short: as §1

[3] = target: T3, human E3 ligase component cereblon (CRBN) (Homo sapiens, UniProt Q96SW2); assay: Cereblon (CRBN) target engagement, NanoBRET TE Intracellular E3 Ligase Assay in transfected HEK-293T cells; conditions: read-out: CRBN Binding EC50
T3 construct: host or cells: HEK293T
In short: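 Tracer displacement was read as the 610/450 nm BRET signal after 2 h at 37° C with an 11-point dilution series, typically 10 μM to 100 pM. Live HEK-293T cells expressed NanoLuc fused N-terminal to human CRBN together with DDB1. IC50 was fitted with a four-parameter logistic model.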

IKZF3 (Aiolos) = target: T4, IKZF3 (Aiolos) (Homo sapiens, UniProt Q9UKT9); assay: IKZF3 reporter degradation assay (HEK 293T IKZF3-mNeonGreen reporter cell line); type: cell-based; conditions: HEK 293T IKZF3-mNeonGreen reporter, 24 hours incubation
T4 construct: Leu-Asp junction (codons ctcgac before the linker); mScarlet (behind P2A) (C, cleaved yes); expressed in transfected cells
In short: as §1

IKZF1 (Ikaros) = target: T5, IKZF1 (Ikaros) (Homo sapiens, UniProt Q13422); assay: IKZF1 reporter degradation assay (HEK 293T IKZF1-mNeonGreen reporter cell line); type: cell-based; conditions: HEK 293T IKZF1-mNeonGreen reporter, 24 hours incubation
T5 construct: mScarlet (behind P2A) (C, cleaved yes); expressed in transfected cells
In short: as §1

T3 sequence (Q96SW2 whole entry): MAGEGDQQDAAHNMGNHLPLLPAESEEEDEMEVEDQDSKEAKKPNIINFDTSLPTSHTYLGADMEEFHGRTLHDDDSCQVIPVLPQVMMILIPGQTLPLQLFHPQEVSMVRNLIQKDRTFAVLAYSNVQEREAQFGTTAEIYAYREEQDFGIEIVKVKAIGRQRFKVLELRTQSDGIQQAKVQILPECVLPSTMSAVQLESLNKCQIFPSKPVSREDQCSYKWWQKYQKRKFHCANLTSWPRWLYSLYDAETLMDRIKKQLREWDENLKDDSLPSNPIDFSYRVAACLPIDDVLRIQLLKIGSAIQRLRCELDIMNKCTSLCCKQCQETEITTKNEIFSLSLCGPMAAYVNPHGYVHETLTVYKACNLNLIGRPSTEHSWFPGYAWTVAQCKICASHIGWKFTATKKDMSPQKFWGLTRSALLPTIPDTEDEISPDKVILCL
T3 sequence (Q16531 whole entry partner): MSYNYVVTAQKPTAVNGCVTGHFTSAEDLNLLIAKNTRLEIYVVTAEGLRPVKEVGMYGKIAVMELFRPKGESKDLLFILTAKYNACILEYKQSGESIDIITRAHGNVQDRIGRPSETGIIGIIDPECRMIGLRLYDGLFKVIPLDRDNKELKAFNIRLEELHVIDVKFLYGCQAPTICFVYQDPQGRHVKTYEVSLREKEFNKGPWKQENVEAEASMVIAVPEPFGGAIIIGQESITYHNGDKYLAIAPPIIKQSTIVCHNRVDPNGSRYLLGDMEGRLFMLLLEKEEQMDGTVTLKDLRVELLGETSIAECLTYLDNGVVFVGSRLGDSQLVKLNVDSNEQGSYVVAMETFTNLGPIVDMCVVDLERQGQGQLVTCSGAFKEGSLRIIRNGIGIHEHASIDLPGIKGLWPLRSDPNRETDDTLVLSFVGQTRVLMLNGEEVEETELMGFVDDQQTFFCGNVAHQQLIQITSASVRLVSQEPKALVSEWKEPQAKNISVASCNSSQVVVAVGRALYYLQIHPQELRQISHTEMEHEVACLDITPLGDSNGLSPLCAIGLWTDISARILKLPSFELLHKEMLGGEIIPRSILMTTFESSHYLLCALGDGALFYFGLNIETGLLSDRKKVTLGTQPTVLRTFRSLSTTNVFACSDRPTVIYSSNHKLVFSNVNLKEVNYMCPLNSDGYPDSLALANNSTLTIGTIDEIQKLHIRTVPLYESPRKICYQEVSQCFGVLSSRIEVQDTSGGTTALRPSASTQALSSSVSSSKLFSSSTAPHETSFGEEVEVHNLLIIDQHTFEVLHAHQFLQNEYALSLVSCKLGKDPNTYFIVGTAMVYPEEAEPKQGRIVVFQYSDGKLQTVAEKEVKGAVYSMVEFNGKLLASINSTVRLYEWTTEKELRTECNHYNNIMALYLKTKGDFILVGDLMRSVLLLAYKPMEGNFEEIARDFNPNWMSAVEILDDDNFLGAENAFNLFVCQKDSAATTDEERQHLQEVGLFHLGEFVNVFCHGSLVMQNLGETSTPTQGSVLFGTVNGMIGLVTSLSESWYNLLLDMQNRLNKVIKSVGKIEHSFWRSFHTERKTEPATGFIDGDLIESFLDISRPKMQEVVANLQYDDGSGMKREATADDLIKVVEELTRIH
T4 sequence (Q96SW2 whole entry partner): as the sequence (Q96SW2 whole entry) above
T4 sequence (Q16531 whole entry partner): as the sequence (Q16531 whole entry partner) above
T4 sequence (Q9UKT9 whole entry): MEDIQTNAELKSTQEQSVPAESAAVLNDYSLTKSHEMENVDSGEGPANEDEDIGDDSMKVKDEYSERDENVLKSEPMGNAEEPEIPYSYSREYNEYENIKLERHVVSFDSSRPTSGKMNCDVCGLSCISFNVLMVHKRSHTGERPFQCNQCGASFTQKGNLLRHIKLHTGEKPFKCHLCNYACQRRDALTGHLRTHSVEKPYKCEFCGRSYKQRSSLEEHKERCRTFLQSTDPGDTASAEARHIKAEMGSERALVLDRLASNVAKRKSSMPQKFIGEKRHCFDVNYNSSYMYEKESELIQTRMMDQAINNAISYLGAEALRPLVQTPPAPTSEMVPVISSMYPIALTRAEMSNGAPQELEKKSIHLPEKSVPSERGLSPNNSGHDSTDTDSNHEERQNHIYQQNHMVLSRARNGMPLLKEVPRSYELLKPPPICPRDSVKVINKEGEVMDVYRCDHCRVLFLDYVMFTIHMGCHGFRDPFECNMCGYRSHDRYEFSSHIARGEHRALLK
T5 sequence (Q96SW2 whole entry partner): as the sequence (Q96SW2 whole entry) above
T5 sequence (Q16531 whole entry partner): as the sequence (Q16531 whole entry partner) above
T5 sequence (Q13422 whole entry): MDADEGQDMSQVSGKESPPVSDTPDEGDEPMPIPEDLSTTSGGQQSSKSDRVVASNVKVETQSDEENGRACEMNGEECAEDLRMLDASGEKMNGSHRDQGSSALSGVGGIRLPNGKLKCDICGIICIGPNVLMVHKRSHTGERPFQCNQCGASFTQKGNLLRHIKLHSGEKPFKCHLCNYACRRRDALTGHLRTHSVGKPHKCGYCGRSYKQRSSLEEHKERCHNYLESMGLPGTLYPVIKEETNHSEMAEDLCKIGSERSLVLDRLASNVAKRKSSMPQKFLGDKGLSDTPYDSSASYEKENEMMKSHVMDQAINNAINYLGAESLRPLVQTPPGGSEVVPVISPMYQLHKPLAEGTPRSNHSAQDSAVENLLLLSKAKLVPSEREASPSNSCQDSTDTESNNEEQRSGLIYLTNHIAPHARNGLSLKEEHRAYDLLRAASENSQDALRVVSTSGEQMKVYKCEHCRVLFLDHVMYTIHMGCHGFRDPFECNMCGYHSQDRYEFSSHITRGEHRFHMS
T1 sequence (Q9UKS7 whole entry): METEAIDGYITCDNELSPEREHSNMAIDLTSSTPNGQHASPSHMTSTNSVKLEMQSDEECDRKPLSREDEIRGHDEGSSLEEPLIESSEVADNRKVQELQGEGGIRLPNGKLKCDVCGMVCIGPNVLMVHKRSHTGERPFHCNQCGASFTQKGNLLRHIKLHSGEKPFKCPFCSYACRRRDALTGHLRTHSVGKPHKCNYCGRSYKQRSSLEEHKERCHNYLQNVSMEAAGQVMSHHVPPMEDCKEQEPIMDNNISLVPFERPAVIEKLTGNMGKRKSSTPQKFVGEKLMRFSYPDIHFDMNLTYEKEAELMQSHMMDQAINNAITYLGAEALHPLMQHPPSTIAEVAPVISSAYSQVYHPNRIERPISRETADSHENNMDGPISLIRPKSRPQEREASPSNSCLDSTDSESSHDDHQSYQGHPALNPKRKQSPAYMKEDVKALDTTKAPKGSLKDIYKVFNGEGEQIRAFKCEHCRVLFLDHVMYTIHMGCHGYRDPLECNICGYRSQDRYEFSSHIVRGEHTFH
T1 sequence (Q96SW2 whole entry): as the sequence (Q96SW2 whole entry) above
T1 sequence (Q16531 whole entry partner): as the sequence (Q16531 whole entry partner) above
T2 sequence (Q9UKS7 whole entry): as the sequence (Q9UKS7 whole entry) above
T2 sequence (Q96SW2 whole entry, further chain): as the sequence (Q96SW2 whole entry) above
T2 sequence (Q16531 whole entry partner): as the sequence (Q16531 whole entry partner) above

SMILES	inhibition at 1 µM (IKZF2 (Helios) [1]) [%]	DC50 (IKZF2 (Helios) [2]) [µM]	EC50 [3] [µM]	DC50 (IKZF3 (Aiolos)) [µM]	DC50 (IKZF1 (Ikaros)) [µM]	IKZF2 % Degradation @ 1 μM (IKZF2 (Helios) [1]) [%]
Cc1cnc(C2CN([C@H]3CCCC3Oc3ccc4c(c3)CN(C3CCC(=O)NC3=O)C4=O)C2)o1 (mixture of isomers) [Compound 161-B, Rac-3-(5-(((cis)-2-(3-(5-methyloxazol-2-yl)azetidin-1-yl)cyclopentyl)oxy)-1-oxoisoindolin-2-yl)piperidine-2,6-dione]	49.7	0.138	0.12	> 30	> 30	–
O=C1CCC(N2Cc3cc(O[C@H]4CCCC[C@@H]4N4CC(c5ccncc5F)C4)ccc3C2=O)C(=O)N1 (mixture of isomers) [Compound 167-B, Rac-3-(5-(((trans)-2-(3-(3-fluoropyridin-4-yl)azetidin-1-yl)cyclohexyl)oxy)-1-oxoisoindolin-2-yl)piperidine-2,6-dione]	28.8	0.241	0.074	> 30	> 30	–
O=C1CCC(N2Cc3cc(O[C@H]4CCCC[C@@H]4N4CC(c5ncc(C(F)(F)F)cn5)C4)ccc3C2=O)C(=O)N1 (mixture of isomers) [Compound 187-B, Rac-3-(1-oxo-5-(((trans)-2-(3-(5-(trifluoromethyl)pyrimidin-2-yl)azetidin-1-yl)cyclohexyl)oxy)isoindolin-2-yl)piperidine-2,6-dione]	27.4	0.085	0.006	> 30	> 30	–
Cc1ccnc(C2CN([C@H]3CCCC[C@@H]3Oc3ccc4c(c3)CN(C3CCC(=O)NC3=O)C4=O)C2)n1 (mixture of isomers) [Compound 188-B, Rac-3-(5-(((trans)-2-(3-(4-methylpyrimidin-2-yl)azetidin-1-yl)cyclohexyl)oxy)-1-oxoisoindolin-2-yl)piperidine-2,6-dione]	42	0.24	0.044	> 30	> 30	–
Cc1cnc(C2CN([C@H]3CCCC[C@@H]3Oc3ccc4c(c3)CN(C3CCC(=O)NC3=O)C4=O)C2)nc1 (mixture of isomers) [Compound 189-B, Rac-3-(5-(((trans)-2-(3-(5-methylpyrimidin-2-yl)azetidin-1-yl)cyclohexyl)oxy)-1-oxoisoindolin-2-yl)piperidine-2,6-dione]	21.2	0.123	0.013	> 30	> 30	–
O=C1CCC(N2Cc3cc(O[C@H]4CCCC[C@@H]4N4CC(c5ccc(C(F)(F)F)cn5)C4)ccc3C2=O)C(=O)N1 (mixture of isomers) [Compound 192-B, Rac-3-(1-oxo-5-(((trans)-2-(3-(5-(trifluoromethyl)pyridin-2-yl)azetidin-1-yl)cyclohexyl)oxy)isoindolin-2-yl)piperidine-2,6-dione]	25.6	0.123	0.007	> 30	> 30	–
O=C1CCC(N2Cc3cc(OC4CCC[C@@H]4N4CC(c5cncnc5)C4)ccc3C2=O)C(=O)N1 (mixture of isomers) [Compound 196-B, Rac-3-(1-oxo-5-(((cis)-2-(3-(pyrimidin-5-yl)azetidin-1-yl)cyclopentyl)oxy)isoindolin-2-yl)piperidine-2,6-dione]	17.6	0.601	0.214	> 30	> 30	–
COc1ccc(C2CN([C@H]3CCCC3Oc3ccc4c(c3)CN(C3CCC(=O)NC3=O)C4=O)C2)cn1 (mixture of isomers) [Compound 201-B, Rac-3-(5-(((cis)-2-(3-(6-methoxypyridin-3-yl)azetidin-1-yl)cyclopentyl)oxy)-1-oxoisoindolin-2-yl)piperidine-2,6-dione]	62.7	0.078	0.036	> 30	> 30	–
O=C1CCC(N2Cc3cc(O[C@H]4CCCC[C@@H]4N4CC(c5ccncc5)C4)ccc3C2=O)C(=O)N1 (single isomer, unassigned) [Compound 85-B]	27.5	0.216	0.028	–	> 30	–
O=C1CCC(N2Cc3cc(O[C@H]4CCCC[C@H]4N4CC(c5ccncc5)C4)ccc3C2=O)C(=O)N1 (single isomer, unassigned) [Compound 86-B]	–	0.189	0.076	–	> 30	22.5

These reach a lower DC50 (IKZF2 (Helios) [2]). Values come first.

inhibition at 1 µM (IKZF2 (Helios) [1]) [%]	DC50 (IKZF2 (Helios) [2]) [µM]	EC50 [3] [µM]	DC50 (IKZF3 (Aiolos)) [µM]	DC50 (IKZF1 (Ikaros)) [µM]	IKZF2 % Degradation @ 1 μM (IKZF2 (Helios) [1]) [%]	SMILES
70.4	0.022	0.059	> 30	> 30	–	O=C1CCC(N2Cc3cc(O[C@@H]4CCCC[C@@H]4N4CC(c5ccncc5Cl)C4)ccc3C2=O)C(=O)N1 (mixture of isomers) [Compound 162-B, Rac-3-(5-(((cis)-2-(3-(3-chloropyridin-4-yl)azetidin-1-yl)cyclohexyl)oxy)-1-oxoisoindolin-2-yl)piperidine-2,6-dione]
71.5	0.011	0.011	> 30	> 30	–	O=C1CCC(N2Cc3cc(O[C@@H]4CCCC[C@H]4N4CC(c5ccc(Cl)cn5)C4)ccc3C2=O)C(=O)N1 (mixture of isomers) [Compound 163-B, Rac-3-(5-(((trans)-2-(3-(5-chloropyridin-2-yl)azetidin-1-yl)cyclohexyl)oxy)-1-oxoisoindolin-2-yl)piperidine-2,6-dione]
66.7	0.031	0.052	> 30	> 30	–	O=C1CCC(N2Cc3cc(O[C@H]4CCCC[C@@H]4N4CC(c5ccncc5Cl)C4)ccc3C2=O)C(=O)N1 (mixture of isomers) [Compound 173-B, Rac-3-(5-(((trans)-2-(3-(3-chloropyridin-4-yl)azetidin-1-yl)cyclohexyl)oxy)-1-oxoisoindolin-2-yl)piperidine-2,6-dione]
70.3	0.028	0.036	> 30	> 30	–	Cc1cnc(C2CN([C@H]3CCCC[C@H]3Oc3ccc4c(c3)CN(C3CCC(=O)NC3=O)C4=O)C2)o1 (mixture of isomers) [Compound 174-B, Rac-3-(5-(((cis)-2-(3-(5-methyloxazol-2-yl)azetidin-1-yl)cyclohexyl)oxy)-1-oxoisoindolin-2-yl)piperidine-2,6-dione]
68.6	0.046	0.039	> 30	> 30	–	N#Cc1cc(C2CN([C@@H]3CCCC[C@@H]3Oc3ccc4c(c3)CN(C3CCC(=O)NC3=O)C4=O)C2)ccn1 (mixture of isomers) [Compound 179-B, Rac-4-(1-((cis)-2-((2-(2,6-dioxopiperidin-3-yl)-1-oxoisoindolin-5-yl)oxy)cyclohexyl)azetidin-3-yl)picolinonitrile]
78.3	0.005	0.009	> 30	> 30	–	O=C1CCC(N2Cc3cc(O[C@@H]4CCCC[C@@H]4N4CC(c5ccc(C(F)(F)F)cn5)C4)ccc3C2=O)C(=O)N1 (mixture of isomers) [Compound 182-B, Rac-3-(1-oxo-5-(((cis)-2-(3-(5-(trifluoromethyl)pyridin-2-yl)azetidin-1-yl)cyclohexyl)oxy)isoindolin-2-yl)piperidine-2,6-dione]
81.3	0.01	0.015	> 30	> 30	–	O=C1CCC(N2Cc3cc(O[C@@H]4CCCC[C@@H]4N4CC(c5ccc(C(F)(F)F)nc5)C4)ccc3C2=O)C(=O)N1 (mixture of isomers) [Compound 183-B, Rac-3-(1-oxo-5-(((cis)-2-(3-(6-(trifluoromethyl)pyridin-3-yl)azetidin-1-yl)cyclohexyl)oxy)isoindolin-2-yl)piperidine-2,6-dione]
79.6	0.021	0.017	> 30	> 30	–	Cc1cnc(C2CN([C@H]3CCCC[C@H]3Oc3ccc4c(c3)CN(C3CCC(=O)NC3=O)C4=O)C2)nc1 (mixture of isomers) [Compound 184-B, Rac-3-(5-(((cis)-2-(3-(5-methylpyrimidin-2-yl)azetidin-1-yl)cyclohexyl)oxy)-1-oxoisoindolin-2-yl)piperidine-2,6-dione]
80.3	0.021	0.03	> 30	> 30	–	Cc1ccnc(C2CN([C@H]3CCCC[C@H]3Oc3ccc4c(c3)CN(C3CCC(=O)NC3=O)C4=O)C2)n1 (mixture of isomers) [Compound 185-B, Rac-3-(5-(((cis)-2-(3-(4-methylpyrimidin-2-yl)azetidin-1-yl)cyclohexyl)oxy)-1-oxoisoindolin-2-yl)piperidine-2,6-dione]
79.7	0.005	0.006	> 30	> 30	–	O=C1CCC(N2Cc3cc(O[C@@H]4CCCC[C@@H]4N4CC(c5ncc(C(F)(F)F)cn5)C4)ccc3C2=O)C(=O)N1 (mixture of isomers) [Compound 186-B, Rac-3-(1-oxo-5-(((cis)-2-(3-(5-(trifluoromethyl)pyrimidin-2-yl)azetidin-1-yl)cyclohexyl)oxy)isoindolin-2-yl)piperidine-2,6-dione]
